Source: patent US20160228489A1, “PHARMACEUTICAL COMPOSITION FOR THE PREVENTION AND THE TREATMENT OF DEGENERATIVE SKIN DISORDERS ESPECIALLY CAUSED BY IONIZING RADIATIONS” (SOLOSALE S.R.L., priority 2011, published 2016)

Tested on: Cultured skin fibroblasts exposed to UV rays
Assay: cultured skin fibroblasts exposed to UV rays: intracellular GSH and cell survival
Format: cell-based
Details: for effectiveness for increase of intracellular GSH and of cell survival following exposure to ultraviolet radiation (in words): similar experiments, same concentrations; for cell survival, % (24 h after end of irradiation) / intracellular GSH, % compared to controls (3 h after incubation): fibroblasts exposed to UV rays, 3 h incubation with formulation containing 100 μM S-acyl-glutathione; for cell survival, % (24 h after end of irradiation): UV without compound 10, unexposed control 100; for intracellular GSH, % compared to controls (3 h after incubation): UV without compound 30, unexposed control 100

Compound: O=C1O[C@H]([C@@H](O)CO)C(O)=C1O [ascorbic acid, reference compound]
- effectiveness for increase of intracellular GSH and of cell survival following exposure to ultraviolet radiation (in words): did not produce significant effects

Compound: Cc1c(C)c2c(c(C)c1O)CCC(C)(C(=O)O)O2 (stereo not shown) [Trolox®, reference compound]
- effectiveness for increase of intracellular GSH and of cell survival following exposure to ultraviolet radiation (in words): did not produce significant effects

Compound: CCCCCCCC/C=C\CCCCCCCC(=O)SC[C@H](NC(=O)CC[C@H](N)C(=O)O)C(=O)NCC(=O)O [oleyl-S-glutathione]
- cell survival, % (24 h after end of irradiation): 35%
- intracellular GSH, % compared to controls (3 h after incubation): 85%

Compound: CC/C=C\C/C=C\C/C=C\CCCCCCCC(=O)SCC(NC(=O)CCC(N)C(=O)O)C(=O)NCC(=O)O (stereo not shown) [linolenoyl-S-glutathione]
- cell survival, % (24 h after end of irradiation): 97%
- intracellular GSH, % compared to controls (3 h after incubation): 115%

Compound: vitamin E [reference compound]
- effectiveness for increase of intracellular GSH and of cell survival following exposure to ultraviolet radiation (in words): did not produce significant effects

Compound: CCCCC/C=C\C/C=C\CCCCCCCC(=O)SC[C@H](NC(=O)CC[C@H](N)C(=O)O)C(=O)NCC(=O)O [linoleyl-S-glutathione]
- cell survival, % (24 h after end of irradiation): 63%
- intracellular GSH, % compared to controls (3 h after incubation): 110%

Compound: Oc1ccc(C=Cc2cc(O)cc(O)c2)cc1 [resveratrol, reference compound]
- effectiveness for increase of intracellular GSH and of cell survival following exposure to ultraviolet radiation (in words): did not produce significant effects

Compound: CCCCC/C=C\C/C=C\C/C=C\C/C=C\CCCC(=O)SC[C@H](NC(=O)CC[C@H](N)C(=O)O)C(=O)NCC(=O)O [arachidonoyl-S-glutathione]
- cell survival, % (24 h after end of irradiation): 100%
- intracellular GSH, % compared to controls (3 h after incubation): 115%

Compound: CC/C=C\C/C=C\C/C=C\C/C=C\C/C=C\CCCC(=O)SC[C@H](NC(=O)CC[C@H](N)C(=O)O)C(=O)NCC(=O)O [eicosapentaenoic acid, eicosapentaenoyl-S-glutathione]
- effectiveness for increase of intracellular GSH and of cell survival following exposure to ultraviolet radiation (in words): results similar to those obtained with linolenic and arachidonic acids

Compound: CC/C=C\C/C=C\C/C=C\C/C=C\C/C=C\C/C=C\CCC(=O)O [docosahexaenoic acid]
- effectiveness for increase of intracellular GSH and of cell survival following exposure to ultraviolet radiation (in words): results similar to those obtained with linolenic and arachidonic acids

Compound: CC/C=C\C/C=C\C/C=C\CCCCCCCC(=O)N[C@@H](CCC(=O)N[C@@H](CSC(=O)CCCCCCC/C=C\C/C=C\C/C=C\CC)C(=O)NCC(=O)O)C(=O)O [S,N-di-linolenoyl-S-glutathione]
- cell survival, % (24 h after end of irradiation): 98%
- intracellular GSH, % compared to controls (3 h after incubation): 113%
